Source: patent US20230320986A1, “TARGETED ANT[…] SYSTEM FOR CANCER TREATMENT” (priority 2020, published 2023)

How the values were obtained:
[1] = Cumulative drug release from polymersomes; type: physicochemical; settings: after 48 h, 37° C., PBS
Method: To further evaluate the UTO and DOX cumulative release behavior from polymersomes, UTO-and DOX-loaded PS were incubated at 37° C. in PBS (0.25 mL) for different time periods (0; 1; 4; 24; and 48 h). The samples were centrifuged using Amicon Ultra centrifugal filters (MWCO 100 kDa) for 20 min at 6,000 g at RT. The fluorescence of the filtrates was measured at 485 nm/535 nm (0.1 s) using a Victor X5 Multilabel Microplate Reader (Perkin Elmer, USA) to quantify the released drug amount.

M21 cells = assay: Cytotoxicity in cultured cells; type: cell-based, human; settings: 25 µM drug, 30 min treatment
Method: (§1) For assessment of the UTO cytotoxicity the cytotoxicity of RPAR-UTO-PS, UTO-PS, PS, free UTO, and free DOX in cultured PPC-1 (FIG. 4) and M21 (FIG. 5) cells after 30 min treatment over a range of drug concentrations was tested.

PPC-1 cells = assay: Cytotoxicity in cultured cells; type: cell-based, human; settings: 30 min treatment
Method: as §1

[2] = Encapsulation efficiency, comparison PS-UTO vs. PS-DOX (section 4); type: physicochemical; settings: PEG-PCL-PS
Method: Polymersomes were prepared by dissolving 5 mg of PEG-PCL in 0.3 mL acetone. The acetone was evaporated with nitrogen flow forming a thin polymeric film on the wall of the glass vial. The film was hydrated with 0.5 mL of PBS pH 7.4 previously purged with nitrogen flow, heated for 30 seconds in a 65° C. water bath, and sonicated for 30 seconds. The heating and sonication steps were repeated until the PS were formed and polymer aggregates were not observed in the suspension. The final volume of PS samples was 0.5 mL and the total polymer concentration 10 mg/mL.
For the PS encapsulation of UTO […] of UTO were dissolved in 100 µL of acetone (0.5 mM concentration) and added to the polymers dissolved in acetone (total amount of polymer - 5 mg, UTO concentration 0.125 mM). The acetone was evaporated to form the polymer/drug film and the PS were formed as described above.
For DOX encapsulation the polymeric film was hydrated with 2 mM DOX solution in PBS pH 7.4 and the PS were formed as described above. […]
The UTO and DOX PS-encapsulated amounts were quantified using UV-VIS spectrometry (Thermo Scientific, USA). For UTO quantification, serial dilutions of UTO in MeOH:water 1:1 were prepared and the absorbance at 485 nm was used for calibration. For DOX quantification, serial dilutions of DOX in PBS were prepared and also the absorbance at 485 nm was measured. […]

[3] = Encapsulation efficiency in polymersomes (section 3.2); type: physicochemical; settings: thin-film hydration, after size exclusion chromatography
Method: For the encapsulation of the drug inside PS, 50 nmols of drug were dissolved in 100 µL of acetone and added to the polymers dissolved in acetone (total amount of polymer was 5 mg). The acetone was evaporated to form the polymer/drug film and the PS were formed as described above.
PS were purified by size exclusion chromatography. Agarose beads with a diameter of 45-165 µm ([…] 4B gel) were used as stationary phase. The height of the Sephadex gel in a column was 8 cm (volume 25.13 mL). The PS sample was eluted with PBS pH 7.4.
The amount of encapsulated drug was quantified using a Nanodrop 2000c UV-VIS spectrophotometer (Thermo Scientific, USA). For drug quantification, serial dilutions of drug in MeOH:water 1:1 were prepared and the absorbance at 490 nm was measured. Using gathered data, the linear trend line was constructed in MS Excel program and the formula was further used to evaluate the concentration of drug inside PS.
For assessment of the UTO encapsulation efficiency the above depicted anthracycline derivative was encapsulated in a PS using a thin-film hydration method. After encapsulation the sample was purified by size exclusion chromatography to remove non-encapsulated drug. […]

Row | SMILES | drug released from the PS [1] | viability at 25 µM (M21 cells; Homo sapiens, 0.5 h, read-out: cell viability) [%] | viability at 2.5 µM (PPC-1 cells; Homo sapiens, 0.5 h, 2.5 µM drug, read-out: cell viability) [%] | viability at 25 µM (PPC-1 cells; Homo sapiens, 0.5 h, 25 µM drug, read-out: cell viability) [%] | encapsulation efficiency, times lower compared to UTO [2] | encapsulation efficiency (EE) ([2]; film hydration, after purification) [%] | encapsulation efficiency (EE) [3] [%] | cell viability (M21 cells) [%] | cell viability (PPC-1 cells; 2.5 µM drug) [%] | cell viability (PPC-1 cells; 25 µM drug) [%]
1 | CC(=O)OCOC(=O)N1CO[C@@H]2[C@H](C)O[C@@H](O[C@H]3C[C@](N)(C(C)O)Cc4c(O)c5c(c(O)c43)C(=O)c3ccccc3C5=O)C[C@@H]21 (some centres unmarked) [UTO] | less than 3% | 15 | 68 | 14 |  |  |  |  |  | 
2 | COc1cccc2c1C(=O)c1c(O)c3c(c(O)c1C2=O)C[C@@](O)(C(=O)CO)C[C@@H]3O[C@H]1C[C@H](N)[C@H](O)[C@H](C)O1 [DOX, doxorubicin] | approximately 10% |  |  |  | approximately 20 times | 2.3 | 1 | 58 | 87 | 56
